From PMC12040169 (PLOS Biology, 2025)

Test: in vitro
Conditions: human, hela cells, % viability
Work on C[C@H](Nc1nc(-c2ccoc2)cnc1N)c1ccccc1 [CBK063707] yielded a viability at 28.5 h, 10 µM of 105%.
Compound C[C@H](Nc1nc(-c2cccc(C(=O)NCCN(C)C)c2)cnc1N)c1ccccc1 [CBK063714] has a viability at 28.5 h, 10 µM of 112%.
C[C@H](Nc1nc(-c2cccc(C(N)=O)c2)cnc1N)c1ccccc1 [CBK063715] gave a viability at 28.5 h, 10 µM of 97.1%.
With C[C@@H](Nc1nc(-c2cc(C(F)(F)F)cc(C(F)(F)F)c2)cnc1N)c1ccccc1 [CBK063720] the viability at 28.5 h, 10 µM was 105%.
CCCC/C=C/c1cnc(N)c(N[C@@H](C)c2ccccc2)n1 [CBK063722] gave a viability at 28.5 h, 10 µM of 109%.
C[C@@H](Nc1nc(-c2ccccc2)cnc1N)c1ccccc1 [CBK063728] gave a viability at 28.5 h, 10 µM of 98.9%.
CC(C)[C@@H](CO)Nc1nc(-c2cncnc2)cnc1N [CBK063735] gave a viability at 28.5 h, 10 µM of 99.4%.
C[C@@H](Nc1nc(-c2ccco2)cnc1N)c1ccccc1 [CBK063737] showed a viability at 28.5 h, 10 µM of 108%.
Compound COc1ccc(-c2cnc(N)c(N[C@H](C)c3ccccc3)n2)c(OC)c1OC [CBK063747] has a viability at 28.5 h, 10 µM of 105%.
Nc1ncc(-c2ccccc2)nc1NC1CCOCC1 [CBK063748] showed a viability at 28.5 h, 10 µM of 97.3%.
In the case of COc1ccccc1-c1cnc(N)c(N[C@@H](CO)C(C)C)n1 [CBK063749], the viability at 28.5 h, 10 µM is reported as 101%.
Compound C[C@H](Nc1nc(-c2cccc(-c3ccccc3)c2)cnc1N)c1ccccc1 [CBK063752] has a viability at 28.5 h, 10 µM of 94.5%.
Compound C[C@H](Nc1nc(-c2cccc(/C=C/C(=O)O)c2)cnc1N)c1ccccc1 [CBK063754] has a viability at 28.5 h, 10 µM of 85.2%.
For C[C@@H](Nc1nc(-c2cccc3ncccc23)cnc1N)c1ccccc1 [CBK063755], the viability at 28.5 h, 10 µM was 107%.
CC(C)[C@@H](CO)Nc1nc(-c2cccc(Br)c2)cnc1N [CBK063758] gave a viability at 28.5 h, 10 µM of 99.5%.
In the case of COc1ccc(-c2cnc(N)c(N[C@@H](C)c3ccccc3)n2)c(OC)c1OC [CBK063763], the viability at 28.5 h, 10 µM is reported as 84.9%.
CC(=O)c1ccc(-c2cnc(N)c(NCC(C)C)n2)s1 [CBK063764] gave a viability at 28.5 h, 10 µM of 92.8%.
With C[C@H](Nc1nc(-c2cc(C(F)(F)F)cc(C(F)(F)F)c2)cnc1N)c1ccccc1 [CBK063768] the viability at 28.5 h, 10 µM was 106%.
CC(C)CNc1nc(-c2cccnc2)cnc1N [CBK063780] gave a viability at 28.5 h, 10 µM of 99.5%.
In the case of C[C@@H](Nc1nc(-c2cccc3cccnc23)cnc1N)c1ccccc1 [CBK063784], the viability at 28.5 h, 10 µM is reported as 90%.
Compound Nc1ncc(-c2ccco2)nc1NC1CCOCC1 [CBK063806] has a viability at 28.5 h, 10 µM of 102%.
In the case of CC(C)CNc1nc(-c2ccc(F)cc2)cnc1N [CBK063815], the viability at 28.5 h, 10 µM is reported as 105%.
With Nc1ncc(-c2ccncc2)nc1NCC1CCOCC1 [CBK063816] the viability at 28.5 h, 10 µM was 105%.
Work on NC(=O)c1cccc(-c2cnc(N)c(NC3CCOCC3)n2)c1 [CBK063836] yielded a viability at 28.5 h, 10 µM of 98.8%.
With Nc1ncc(-c2ccccc2CO)nc1Nc1ccc2[nH]ccc2c1 [CBK063843] the viability at 28.5 h, 10 µM was 109%.
With COc1cncc(-c2cnc(N)c(NC3CCOCC3)n2)c1 [CBK063846] the viability at 28.5 h, 10 µM was 85.7%.
Nc1ncc(-c2cccc(F)c2)nc1Nc1ccc2[nH]ccc2c1 [CBK063851] showed a viability at 28.5 h, 10 µM of 95.1%.
In the case of Nc1ncc(-c2cccc3ncccc23)nc1NC1CCOCC1 [CBK063852], the viability at 28.5 h, 10 µM is reported as 101%.
For Nc1ncc(-c2cccc(Br)c2)nc1NC1CCOCC1 [CBK063854], the viability at 28.5 h, 10 µM was 108%.
Nc1ncc(-c2ccoc2)nc1Nc1ccc2[nH]ccc2c1 [CBK063868] showed a viability at 28.5 h, 10 µM of 80.5%.
Compound CC(C)CNc1nc(-c2cccc(N(C)C)c2)cnc1N [CBK063870] has a viability at 28.5 h, 10 µM of 97%.
COc1ccc(-c2nc(-c3ccc(C#N)cc3)cnc2N)cc1OC [CBK063885] showed a viability at 28.5 h, 10 µM of 94.6%.
In the case of Nc1ncc(-c2cccc(/C=C/C(=O)O)c2)nc1NCCCO [CBK063887], the viability at 28.5 h, 10 µM is reported as 103%.
Compound Nc1ncc(-c2ccncc2)nc1-c1cccc2c1oc1ccccc12 [CBK063889] has a viability at 28.5 h, 10 µM of 102%.
With CCCC/C=C/c1cnc(N)c(-c2ccc(N3CCOCC3)cc2)n1 [CBK063891] the viability at 28.5 h, 10 µM was 101%.
Work on COCCNc1nc(-c2cccc(C(N)=O)c2)cnc1N [CBK063901] yielded a viability at 28.5 h, 10 µM of 115%.
For CC(C)[C@H](CO)Nc1nc(-c2ccccc2)cnc1N [CBK063933], the viability at 28.5 h, 10 µM was 107%.
In the case of CN(C)c1ccc(-c2nc(-c3ccco3)cnc2N)cc1 [CBK063934], the viability at 28.5 h, 10 µM is reported as 104%.
Compound Nc1ncc(-c2ccc(Cl)cc2)nc1-c1ccc(N2CCOCC2)cc1 [CBK063953] has a viability at 28.5 h, 10 µM of 111%.
With COc1ccc(-c2nc(-c3cc4ccccc4s3)cnc2N)cc1OC [CBK063963] the viability at 28.5 h, 10 µM was 98.6%.
COc1ccc(-c2nc(-c3ccoc3)cnc2N)cc1OC [CBK063964] showed a viability at 28.5 h, 10 µM of 105%.
Nc1ncc(-c2ccoc2)nc1-c1ccc(C(=O)O)cc1 [CBK063972] gave a viability at 28.5 h, 10 µM of 89.6%.
In the case of COCOc1ccc(-c2nc(-c3cccs3)cnc2N)cc1 [CBK063977], the viability at 28.5 h, 10 µM is reported as 101%.
For COc1ccc(-c2nc(-c3cccs3)cnc2N)cc1OC [CBK063981], the viability at 28.5 h, 10 µM was 107%.
For COCOc1ccc(-c2nc(-c3cccc(NS(C)(=O)=O)c3)cnc2N)cc1 [CBK063985], the viability at 28.5 h, 10 µM was 105%.
Nc1ncc(-c2cccs2)nc1-c1ccc(F)c(Cl)c1 [CBK063990] gave a viability at 28.5 h, 10 µM of 101%.
NC(=O)c1cccc(-c2nc(-c3cc4ccccc4o3)cnc2N)c1 [CBK063996] showed a viability at 28.5 h, 10 µM of 94.5%.
In the case of CN(C)c1cccc(-c2nc(-c3occc3C=O)cnc2N)c1 [CBK064001], the viability at 28.5 h, 10 µM is reported as 92.1%.
For Nc1ncc(-c2occc2C=O)nc1-c1ccc(F)c(Cl)c1 [CBK064005], the viability at 28.5 h, 10 µM was 101%.
In the case of Nc1ncc(-c2ccco2)nc1-c1ccc(F)c(Cl)c1 [CBK064013], the viability at 28.5 h, 10 µM is reported as 106%.
Work on COc1ncc(-c2cnc(N)c(-c3cccc(N(C)C)c3)n2)c(OC)n1 [CBK064017] yielded a viability at 28.5 h, 10 µM of 90.9%.
Compound Nc1ncc(-c2cccc(OC(F)(F)F)c2)nc1-c1ccc(F)c(Cl)c1 [CBK064021] has a viability at 28.5 h, 10 µM of 113%.
For CC(=O)c1ccc(-c2nc(-c3ccoc3)cnc2N)cc1 [CBK064058], the viability at 28.5 h, 10 µM was 97.3%.
N#Cc1ccc(-c2cnc(N)c(-c3ccc(C(=O)N4CCOCC4)cc3)n2)cc1 [CBK064067T] showed a viability at 28.5 h, 10 µM of 116%.
For CCCC/C=C/c1cnc(N)c(-c2ccc(O)cc2)n1 [CBK064068], the viability at 28.5 h, 10 µM was 95.3%.
Nc1ncc(-c2cccc(OC(F)(F)F)c2)nc1-c1ccc(CCC(=O)O)cc1 [CBK064071] gave a viability at 28.5 h, 10 µM of 95.2%.
For Nc1ncc(-c2ccoc2)nc1-c1ccc(C(=O)N2CCOCC2)cc1 [CBK064076], the viability at 28.5 h, 10 µM was 101%.
Work on COc1ccccc1-c1cnc(N)c(N2CCC(C(=O)O)CC2)n1 [CBK064082] yielded a viability at 28.5 h, 10 µM of 96.1%.
For Nc1ncc(-c2cccc(O)c2)nc1-c1ccc(C=O)cc1 [CBK064088], the viability at 28.5 h, 10 µM was 104%.
Compound CC(=O)c1ccc(-c2nc(-c3ccc(Cl)cc3)cnc2N)cc1 [CBK064097] has a viability at 28.5 h, 10 µM of 89.6%.
Compound COc1ccc(-c2nc(-c3cc4ccccc4o3)cnc2N)cc1OC [CBK064099] has a viability at 28.5 h, 10 µM of 63.2%.
Compound Nc1ncc(-c2ccncc2)nc1-c1ccc(C=O)cc1 [CBK064102] has a viability at 28.5 h, 10 µM of 106%.
Compound CC(=O)c1ccc(-c2nc(-c3cccc(OC(F)(F)F)c3)cnc2N)cc1 [CBK064105] has a viability at 28.5 h, 10 µM of 103%.
NC(=O)c1cccc(-c2nc(-c3ccc(F)cc3F)cnc2N)c1 [CBK064109] showed a viability at 28.5 h, 10 µM of 86.5%.
With NC(=O)c1cccc(-c2nc(-c3cccs3)cnc2N)c1 [CBK064117] the viability at 28.5 h, 10 µM was 89.7%.
With Nc1ncc(-c2cc3ccccc3o2)nc1-c1ccc(C=O)cc1 [CBK064126] the viability at 28.5 h, 10 µM was 91.9%.
